Results as given in ChEMBL document CHEMBL6121009, “Identification of a selective pyruvate dehydrogenase kinase 1 (PDHK1) chemical probe by virtual screening” (Eur J Med Chem, 2025).

Tests used:
[1] = target: [Pyruvate dehydrogenase (acetyl-transferring)] kinase isozyme 4, mitochondrial (Homo sapiens, UniProt Q16654)
Description: Inhibition of human PDHK4 using myelin basic protein as substrate pre-incubated for 20 min followed by addition of [gamma-33P]-ATP measured after 2 hrs by Radiometric Hotspot kinase assay

[2] = target: [Pyruvate dehydrogenase (acetyl-transferring)] kinase isozyme 3, mitochondrial (Homo sapiens, UniProt Q15120)
Description: Inhibition of human PDHK3 using myelin basic protein as substrate pre-incubated for 20 min followed by addition of [gamma-33P]-ATP measured after 2 hrs by Radiometric Hotspot kinase assay

[3] = target: [Pyruvate dehydrogenase (acetyl-transferring)] kinase isozyme 2, mitochondrial (Homo sapiens, UniProt Q15119)
Description: Inhibition of human PDHK2 using PDHKtide and Mn2+ as substrates pre-incubated for 20 min followed by addition of [gamma-33P]-ATP measured after 2 hrs by Radiometric Hotspot kinase assay

Sequence of [Pyruvate dehydrogenase (acetyl-transferring)] kinase isozyme 4, mitochondrial (Q16654 whole entry): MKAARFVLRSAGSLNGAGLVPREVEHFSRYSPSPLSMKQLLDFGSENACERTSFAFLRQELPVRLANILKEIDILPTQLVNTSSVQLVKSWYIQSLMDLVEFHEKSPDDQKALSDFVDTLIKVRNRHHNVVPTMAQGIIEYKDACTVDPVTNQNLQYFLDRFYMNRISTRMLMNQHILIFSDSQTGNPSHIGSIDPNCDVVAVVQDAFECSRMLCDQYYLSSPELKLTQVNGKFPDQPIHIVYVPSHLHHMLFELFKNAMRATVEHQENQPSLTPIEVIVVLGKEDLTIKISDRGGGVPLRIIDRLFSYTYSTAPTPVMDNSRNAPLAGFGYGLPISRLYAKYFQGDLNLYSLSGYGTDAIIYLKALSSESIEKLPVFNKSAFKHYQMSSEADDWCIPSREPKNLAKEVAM
Sequence of [Pyruvate dehydrogenase (acetyl-transferring)] kinase isozyme 3, mitochondrial (Q15120 whole entry): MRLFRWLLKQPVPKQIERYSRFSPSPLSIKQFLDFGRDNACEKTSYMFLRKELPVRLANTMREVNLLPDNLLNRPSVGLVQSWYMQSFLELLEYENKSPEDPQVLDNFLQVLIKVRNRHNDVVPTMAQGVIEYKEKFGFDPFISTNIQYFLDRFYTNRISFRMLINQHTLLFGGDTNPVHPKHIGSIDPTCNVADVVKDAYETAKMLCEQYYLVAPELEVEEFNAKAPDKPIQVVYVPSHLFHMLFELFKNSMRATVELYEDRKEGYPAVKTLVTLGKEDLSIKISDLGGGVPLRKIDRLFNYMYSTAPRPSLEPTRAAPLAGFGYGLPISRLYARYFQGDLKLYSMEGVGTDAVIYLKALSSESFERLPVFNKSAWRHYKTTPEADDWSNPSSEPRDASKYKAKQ

Row | SMILES | IC50 [1] [µM] | IC50 [2] [µM] | IC50 [3] [µM]
1 | Cc1ccc(Cl)cc1S(=O)(=O)Nc1cc(C#N)ccc1Br | 15.5 | > 30 | > 30
2 | O=C(O)c1ccc(Br)c(NS(=O)(=O)c2ccc(Cl)s2)c1 | > 30 | > 30 | > 30
3 | O=C(O)c1ccc(Br)c(NS(=O)(=O)c2cc(Cl)cc(Cl)c2)c1 | 17 | > 30 | > 30
4 | O=C(O)C(Cl)Cl [DICHLOROACETIC ACID] | 108 | > 5000 | > 5000

Now from value to molecule:

Row | IC50 [1] [µM] | IC50 [2] [µM] | IC50 [3] [µM] | SMILES
5 | 30 | > 30 | > 30 | Cc1ccc(Cl)cc1S(=O)(=O)Nc1cc(C(=O)O)ccc1Br
6 | > 30 | > 30 | > 30 | CSc1ccc(C(=O)O)cc1NS(=O)(=O)c1cc(Cl)ccc1C
7 | > 30 | > 30 | > 30 | COc1cc(C(=O)O)cc(NS(=O)(=O)c2cc(Cl)ccc2C)c1Cl
8 | 23.6 | > 30 | > 30 | Cc1ccc(Cl)cc1S(=O)(=O)Nc1cc(Br)cc(C(=O)O)c1
